Laboratory results as given in US6897319B2, “Useful aroyl pyrrole heteroaryl methanones and methanols” (Ortho-McNeil Pharmaceutical, Inc., priority 2001, dated 2005).
Marks after values point to notes of the source that are not given here.

Legend:
[1] = tested on: voltage-gated sodium channels; assay: Fluorometric membrane potential assay in SK-N-SH cells (veratridine stimulus, FLIPR); assay type: cell-based; settings: 10 μM compound, 5 μM veratridine
Description: Screening Assay for Voltage-Gated Sodium Channel Antagonists Fluorometric Membrane Potential Assay
(§1) SK-N-SH neuroblastoma cells were maintained in a propagation medium containing modified Eagle's medium and 10% (v/v) fetal bovine serum and were incubated at 37° C. in a 5% CO2 atmosphere. Only cells with fewer than 20 passages were used in each assay. All drugs were prepared in DMSO, and the final concentration of solvent was less than 0.1% (v/v). Veratridine, a toxin that selectively promotes persistent activation of voltage-gated sodium channels, served as the stimulus. 24 hr prior to testing, 1×10^5 cells/well were plated into 96-well plates specifically designed for use in a fluorescent imaging plate reader (FLIPR) (Molecular Devices, Sunnyvale, Calif.)
Prior to screening, monolayers of cells were loaded with 100 μL/well of a proprietary voltage-sensitive dye (Molecular Devices, Sunnyvale, Calif.) for 30 min at 37° C. After this incubation period, the cells were stimulated with 5 μM veratridine in the presence or absence of investigational compounds (prepared at a final concentration of 10 μM in DMSO). A sample containing 5 μM veratridine and 10 μM tetrodotoxin accounted for nonspecific activity. The fluorescence was monitored by the FLIPR (Molecular Devices) from 10 sec prior to drug addition (50 μL) to 170 sec after drug addition at 25° C. During sodium channel activation, the cells depolarize and the dye associates with cell membranes, resulting in increased fluorescence.

[2] = tested on: mechanical allodynia after L5 spinal nerve ligation; assay: Chung Model (spinal nerve ligation) antiallodynic effect; assay type: in vivo; settings: rat; for % MPE in the Chung Model: oral, screening dose (not given)
From the text: Procedure for Testing Antiallodynic Effect
The procedure used to detect the antiallodynic effect of a compound of the present invention for which there is a good correlation with human efficacy for the treatment of pain is the procedure for the measurement of allodynia found in the Chung Model (Kim S. H. and Chung J. M., An Experimental Model for Peripheral Neuropathy Produced by Segmental Spinal Nerve Ligation in the Rat, Pain, 1992, 50, 355-363). The antiallodynic effect of the composition of the present invention in the Chung Model is expressed in % MPE (Maximum Possible Effect).
Male Sprague-Dawley rats, weighing approximately 200 g each were anesthetized with isoflurane. The spinal nerve at the level of L5 was exposed through an incision just left of the dorsal midline and tightly ligated with 6-0 silk. At various times after surgery, animals were tested for mechanical allodynia with von Frey hairs (monofilaments which are calibrated to bend under a certain amount of pressure, ranging from 0.41 to 15.1 g). In order to calculate a paw withdrawal threshold (PWT), tactile allodynia was measured by recording the pressure at which the affected paw was withdrawn from graded stimuli according to the procedure of S. R. Chaplan, J. W. Pogrel, T. L. Yaksh, Role of Voltage-Dependent Calcium Channel Subtypes in Experimental Tactile Allodynia, J. Pharmacol. Exp. Ther., 1994, 269, 1117-1123. Normal rats can withstand at least 15 g of pressure without responding. Operated rats, however, can respond to as little as 0.25 g of pressure. The surgery was deemed successful if the animal responded with a PWT of less than 4 g of pressure applied to the affected paw. […] The PWT was used to calculate the % maximal possible effect (% MPE) according to the formula: %MPE=100×[(PWT−CT)/(CO−CT)]; wherein PWT is defined as Paw Withdrawal Threshold, CT is Control Threshold, and CO is Cut Off (defined as 15 g).
The sham operation consisted of a similar surgery; the spinal nerve was visualized without being ligated.
Compounds selected from Formula (I) and Formula (II) were tested for activity in treating or modulating neuropathic pain by being dissolved or suspended in either water or hydroxypropyl methylcellulose, respectively. Postoperative animals between 14 to 42 days were fasted overnight prior to dosing. Animals were orally dosed and dosage volumes were calculated on a 4 mL/kg basis.

[3] = tested on: maximal electroshock extensor seizure; assay: Mouse maximal electroshock test (MES) anticonvulsant model; assay type: in vivo; settings: oral
Description: Procedure for Testing in Mouse Anticonvulsant Model
The activity of the present compounds as anticonvulsant agents was determined using a standard mouse “maximal electroshock test” (MES). In this test, activity was indicated by a block of the […] extensor seizure, as described by Swinyard, et al. (J. Pharmacol. Exptl. Therap., 1952, 106, 319). A more recent description of current anticonvulsant drug screening is given in Swinyard, et al., in Epilepsia, 1978, 19, 409.
The anticonvulsant activity of the instant compounds is shown in Table 5 and was evaluated according to the Swinyard (1952) method. The abbreviations used in the table have the following meanings: mpk refers to the dose orally administered in “mg per Kg;” and, ED50 refers to the “50% Effective Dose” orally administered in mpk. The values marked by an * represent the number of mice protected/number of mice tested; therefore, a value of 3/3 represents that the number of mice protected matched the number of mice tested at the indicated dose.

[4] = tested on: voltage-gated sodium channels; assay: [14C]guanidinium flux assay in SK-N-SH cells (veratridine stimulus); assay type: cell-based; settings: 10 μM compound, 100 μM veratridine
Description: Screening Assay for Voltage-Gated Sodium Channel Antagonists [^14C] Guanidinium Flux Assay
as §1, with “stimulus.” for “stimulus. 24 hr prior to testing, 1×10^5 cells/well were plated into 96-well plates specifically designed for use in a fluorescent imaging plate reader (FLIPR) (Molecular Devices, Sunnyvale, Calif.)”
SK-N-SH cells were plated at 1×10^5 cells/well in 96-well Cytostar-T microscintillating plates in propagation medium and experiments were performed 6-7 days after plating. Prior to assay, the SK-N-SH cells were washed twice with assay buffer containing 50 mM HEPES (pH 7.45), 5.4 mM potassium chloride, 0.8 mM magnesium chloride, 130 mM choline chloride, 5.5 mM glucose and 0.1 mg/mL bovine serum albumin. Next, the plates were allowed to equilibrate for 10 min at 37° C. in assay buffer. After this incubation period, the cells were stimulated with 100 μM veratridine in the presence or absence of investigational compounds prepared in a 96-well plate (prepared at a final concentration of 10 μM in DMSO). The 96-well dosing plate was prepared by mixing 25 μL of a drug/assay buffer solution per well with 25 μL of 0.7 μCi/mL [^14C]guanidine hydrochloride in assay buffer. 50 μL aliquots from the dosing plate were then added to the cells. One sample containing 100 μM veratridine and 10 μM tetrodotoxin accounted for nonspecific activity. The plates were incubated for 1 hr at room temperature and the radioactivity was counted in a 1450 Microbeta scintillation counter.

Row | Structure (SMILES) | % FI at 10 μM (% fluorescence inhibition) [1] [%] | % MPE in the Chung Model [2] [%] | MES Response, number of mice protected/number of mice tested ([3]; @ 100 mpk) | MES Response, number of mice protected/number of mice tested ([3]; @ 300 mpk) | % GFI at 10 μM (% guanidinium flux inhibition) [4] [%] | MES Response, number of mice protected/number of mice tested ([3]; @ 30 mpk) | ED50 ([2]; po, orally administered) [mg/kg] | ED50 in the Chung Model ([2]; orally administered)
1 | Cn1cc(C(=O)c2ccncc2)cc1C(=O)c1ccccc1 [Cpd 2, (5-Benzoyl-1-methyl-1H-pyrrol-3-yl)pyridin-4-ylmethanone] | 76 | 7 |  |  |  |  |  | 
2 | Cc1ccc(C(=O)c2cc(C(=O)c3ccncc3)cn2C)cc1.Cl [Cpd 3, [1-Methyl-5-(4-methylbenzoyl)-1H-pyrrol-3-yl]pyridin-4-ylmethanone Hydrochloride] | 45 | 5 | 3/3* @ 100 mpk |  |  |  |  | 
3 | Cl.Cn1cc(C(=O)c2ccncc2)cc1C(=O)c1cccs1 [Cpd 4, [1-Methyl-5-(thiophene-2-carbonyl)-1H-pyrrol-3-yl]pyridin-4-ylmethanone hydrochloride] | 49 |  |  | 0/1* @ 300 mpk |  |  |  | 
4 | Cl.Cn1cc(C(=O)c2cccnc2)cc1C(=O)c1ccc(Cl)cc1.Cn1cc(C(=O)c2cccnc2)cc1C(=O)c1ccc(Cl)cc1.O [Cpd 5, [5-(4-Chlorobenzoyl)-1-methyl-1H-pyrrol-3-yl]pyridin-3-ylmethanone hydrochoride hydrate [2:1:1]] | 26 | 9 |  |  | 55 |  |  | 
5 | Cn1cc(C(=O)c2ccccn2)cc1C(=O)c1ccc(Cl)cc1 [Cpd 6, [5-(4-Chlorobenzoyl)-1-methyl-1H-pyrrol-3-yl]pyridin-2-yl-methanone] | 25 | 12 |  |  | 74 | 1/1* @ 30 mpk |  | 
6 | Cl.Cn1cc(C(=O)c2ccc(F)cc2)cc1C(=O)c1cccnc1 [Cpd 7, (4-Fluorophenyl)-[1-methyl-5-(pyridine-3-carbonyl)-1H-pyrrol-3-yl]methanone Hydrochloride] | 45 |  | 2/3* @ 100 mpk |  | 57 |  | 22 | 
7 | Cn1cc(C(=O)c2ccc3ccccc3c2)cc1C(=O)c1cccnc1 [Cpd 8, [1-Methyl-5-(pyridine-3-carbonyl)-1H-pyrrol-3-yl]naphthalen-2-yl-methanone] | 67 | 1.3 |  | 0/1* @ 300 mpk | 82 |  |  | 
8 | Cn1cc(C(=O)c2ccc(Cl)cc2)cc1C(=O)c1ccc(Cl)nc1 [Cpd 9, (4-Chlorophenyl)-[5-(6-chloropyridine-3-carbonyl)-1-methyl-1H-pyrrol-3-yl]methanone] | 26 | 5 |  |  | 31 |  |  | 
9 | Cn1cc(C(=O)c2ccc(F)cc2)cc1C(=O)c1ccccn1 [Cpd 10, (4-Fluorophenyl)-[1-methyl-5-(pyridine-2-carbonyl)-1H-pyrrol-3-yl]methanone] | 60 | 11 |  | 0/1* @ 300 mpk | 46 |  |  | 
10 | Cn1cc(C(=O)c2ccc(F)cc2)cc1C(=O)c1ccncc1 [Cpd 11, (4-Fluorophenyl)-[1-methyl-5-(pyridine-4-carbonyl)-1H-pyrrol-3-yl]methanone] | 39 | 10 |  | 0/1* @ 300 mpk |  |  |  | 
11 | Cn1cc(C(O)c2ccncc2)cc1C(=O)c1ccc(Cl)cc1 (stereo not drawn) [Cpd 12, (4-Chlorophenyl)-[4-(hydroxypyridin-4-yl-methyl)-1-methyl-1H-pyrrol-2-yl]-methanone] | 60 | 3.7 |  |  |  |  |  | 
12 | Cn1cc(C(=O)c2cnc[nH]2)cc1C(=O)c1ccc(Cl)cc1 [Cpd 13, (4-Chlorophenyl)-[4-(3H-imidazole-4-carbonyl)-1-methyl-1H-pyrrol-2-yl]methanone] | 62 |  |  |  | 24 |  |  | 
13 | Cn1cc(C(=O)c2cc[n+](C)cc2)cc1C(=O)c1ccc(Cl)cc1.O.O=S(=O)([O-])C(F)(F)F [Cpd 14, 4-[[5-(4-Chlorobenzoyl)-1-methyl-1H-pyrrol-3-yl]carbonyl]-1-methylpyridinium trifluoromethanesulfonate hydrate [5:1]] | 54 |  |  |  | 14 |  |  | 
14 | Cn1cc(C(=O)c2cc[n+]([O-])cc2)cc1C(=O)c1ccc(Cl)cc1 [Cpd 15, (4-Chlorophenyl)-[1-methyl-4-(1-oxypyridine-4-carbonyl)-1H-pyrrol-2-yl]methanone] | 40 | 7.9 |  |  | 4 |  |  | 
15 | Cn1cc(C(O)c2cc[n+]([O-])cc2)cc1C(=O)c1ccc(Cl)cc1 (stereo not drawn) [Cpd 16, (4-Chlorophenyl)-{4-[hydroxy-(1-oxy-pyridin-4-yl)methyl]-1-methyl-1H-pyrrol-2-yl}methanone] | 29 |  |  |  |  |  |  | ED50 = 29 mpk
16 | Cc1c(C(=O)c2ccc(F)cc2)c(C)n(C)c1C(=O)c1cccnc1 [Cpd 17, (4-Fluorophenyl)-[1,2,4-trimethyl-5-(pyridine-3-carbonyl)-1H-pyrrol-3-yl]methanone] | 15 | 59 |  |  |  |  |  | 
